Data set [1] is described as follows: relative thermodynamic stability of crystal forms (equilibration of suspensions). The format is physicochemical. The note with it: for thermodynamic stability of the polymorph: in particular between 5° C. to 65° C. From the text:
Alternatively, Form A can be obtained upon equilibration of solid 7-(4,7-diazaspiro[2.5]octan-7-yl)-2-(2,8-dimethylimidazo[1,2-b]pyridazin-6-yl)pyrido[1,2-a]pyrimidin-4-one suspended in organic solvents or a mixture thereof for prolonged time. In particular 7-(4,7-diazaspiro[2.5]octan-7-yl)-2-(2,8-dimethylimidazo[1,2-b]pyridazin-6-yl)pyrido[1,2-a]pyrimidin-4-one can be suspended in ethanol, methyl ethyl ketone, ethyl acetate, or dioxane at ambient temperature or at elevated temperature (e.g. 22 to 65° C.) for 2-3 weeks affording 7-(4,7-diazaspiro[2.5]octan-7-yl)-2-(2,8-dimethylimidazo[1,2-b]pyridazin-6-yl)pyrido[1,2-a]pyrimidin-4-one as Form A.
Form D can be obtained by equilibration of solid 7-(4,7-diazaspiro[2.5]octan-7-yl)-2-(2,8-dimethylimidazo[1,2-b]pyridazin-6-yl)pyrido[1,2-a]pyrimidin-4-one suspended in water or water containing organic solvents for prolonged time. 7-(4,7-diazaspiro[2.5]octan-7-yl)-2-(2,8-dimethylimidazo[1,2-b]pyridazin-6-yl)pyrido[1,2-a]pyrimidin-4-one can be suspended in water or mixtures of organic solvent and water, in particular in ethanol/water mixtures. In particular, the mixture can be left in equilibration for 2-3 weeks in water or in ethanol/water 20/80 v/v at 65° C. to afford 7-(4,7-diazaspiro[2.5]octan-7-yl)-2-(2,8-dimethylimidazo[1,2-b]pyridazin-6-yl)pyrido[1,2-a]pyrimidin-4-one as Form D. In particular, the mixture can be left in equilibration for 2-3 weeks in water or in ethanol/water 20/80 v/v to 50/50 v/v to 80/20 v/v at approx. 22° C. to afford 7-(4,7-diazaspiro[2.5]octan-7-yl)-2-(2,8-dimethylimidazo[1,2-b]pyridazin-6-yl)pyrido[1,2-a]pyrimidin-4-one as Form D.

A short description of data set [2]: chemical stability of the solid form. The note with it: compared to Form D. It is filed as physicochemical.
Data set [3] can be described thus: hygroscopicity (water uptake according to European Pharmacopoeia). The format is physicochemical.
For data set [4], the system named is exon 7 of SMN1 and/or SMN2. The experiment in a line: inclusion of exon 7 into mRNA transcribed from the SMN1 and/or SMN2 gene. The note with it: increasing expression of SMN protein in a human subject.

In the case of `Cc1cn2nc(-c3cc(=O)n4cc(N5CCNC6(CC6)C5)ccc4n3)cc(C)c2n1` [Form G, 7-(4,7-diazaspiro[2.5]octan-7-yl)-2-(2,8-dimethylimidazo[1,2-b]pyridazin-6-yl)pyrido[1,2-a]pyrimidin-4-one], the “thermodynamic stability of the polymorph” value in data set [1] was “metastable polymorph”.
As to `Cc1cn2nc(-c3cc(=O)n4cc(N5CCNC6(CC6)C5)ccc4n3)cc(C)c2n1` [Form A, 7-(4,7-diazaspiro[2.5]octan-7-yl)-2-(2,8-dimethylimidazo[1,2-b]pyridazin-6-yl)pyrido[1,2-a]pyrimidin-4-one], in data set [1], the “thermodynamic stability of the polymorph” value is on record as “thermodynamic stable polymorph”. Besides, the chemical stability entry in data set [2] is reported as “improved chemical stability”. Also, in data set [3], the hygroscopicity entry is “non-hygroscopic to slightly hygroscopic” and the water uptake is given as below 2%.
Regarding `Cc1cn2nc(-c3cc(=O)n4cc(N5CCNC6(CC6)C5)ccc4n3)cc(C)c2n1` [compound of formula (I), 7-(4,7-diazaspiro[2.5]octan-7-yl)-2-(2,8-dimethylimidazo[1,2-b]pyridazin-6-yl)pyrido[1,2-a]pyrimidin-4-one], the “inclusion of exon 7 of SMN1 and/or SMN2 into mRNA” value in data set [4] was “enhance inclusion of exon 7”.
For `Cc1cn2nc(-c3cc(=O)n4cc(N5CCNC6(CC6)C5)ccc4n3)cc(C)c2n1` [Form B, 7-(4,7-diazaspiro[2.5]octan-7-yl)-2-(2,8-dimethylimidazo[1,2-b]pyridazin-6-yl)pyrido[1,2-a]pyrimidin-4-one], in data set [1], the “thermodynamic stability of the polymorph” value was “metastable polymorph”.
Regarding `Cc1cn2nc(-c3cc(=O)n4cc(N5CCNC6(CC6)C5)ccc4n3)cc(C)c2n1` [Form D, 7-(4,7-diazaspiro[2.5]octan-7-yl)-2-(2,8-dimethylimidazo[1,2-b]pyridazin-6-yl)pyrido[1,2-a]pyrimidin-4-one], the “stability of the hydrated form” value in data set [1] (with sufficiently high water activity) is given as “stable hydrated form”.

The record behind these values is patent US12122789B2, “Forms of pyrido[1,2-a]pyrimidin-4-one derivatives, its formulation and its process of making” (Hoffmann-La Roche Inc., priority 2018, dated 2024).
